Patent US8440638B2, “Compositions and methods for modulating calcium flux, glucose homeostasis and apoptosis” (Wisconsin Alumni Research Foundation, priority 2004, dated 2013)

Experiments:
[1] = tested on: pancreatic cells; settings: not the result of inhibition of protein synthesis (ref. 47); cited from earlier work
[2] = tested on: CRI-G1 cells; assay: Cell viability assay (calcein fluorescence), CRI-G1 cells; format: cell-based, rat; settings: 0-40 μM puromycin, 16 h
Method: FIG. 4 a) OAADPr gates the endogenous TRPM2 channel in CRI-G1 cells. Left panel: Evolution of currents in CRI-G1 cells in the absence (grey squares) or presence (black circles) of OAADPr (120-250 μM). Shown are average leak subtracted currents from n=3 cells for each condition. Right panel: Representative leak subtracted whole cell I/V curves for peak currents observed in the absence (grey line) and presence (black line) of OAADPr. For the above measurements, CRI-G1 cells were maintained in the whole cell patch clamp configuration as previously described for HEK-293 cells (44). b) Puromycin leads to cell death in CRI-G1 cells. CRI-G1 cells were treated with 0-40 μM puromycin for 16 h. Cell viability was assessed by measuring fluorescence of calcein in live cells. Data obtained from 4 independent experiments were plotted as a percent change in fluorescence compared to those of untreated cells set at a 100%. Error bars indicate the standard deviation from the mean. (Inset) Nicotinamide rescues puromycin-induced death in CRI-G1 cells. […] Cell viability was assessed 16 h later as described above. […] Calcein is retained in living, but not dead cells, where it undergoes catalytic conversion into a fluorescent compound Fluorescence in each well was measured in a microplate reader using excitation and emission filters at 485/530 nm, respectively.

[3] = tested on: nuclear acetyltransferase; assay: Nuclear OAADPr acetyltransferase (OAADPr-metabolizing) activity in HEK-293 nuclear extract; format: biochemical; settings: 100 μM puromycin, 60 min
Method: (§1) Shown is the development of whole cell currents over time in TRPM2-expressing HEK-293 cells. Bath solution was standard ringer's, and pipette solution was Cs-based and included 10 mM EGTA to buffer intracellular Ca^2+ to 10 nM. The patch pipette contained various concentrations of (FIG. 1a) ADPr, (FIG. 1b) OAADPr (FIG. 1c) OAADPr and puromycin as indicated in the figure. FIG. 1d.) Cytoplasmic OAADPr esterase activity is inhibited by puromycin. 200 μM O-[^3H]AADPr and 0-100 μM puromycin were added to cytoplasmic HEK-293 extract for 30 min. Percent hydrolysis of O-[^3H]AADPr to [^3H]acetate was measured as described hereinbelow. FIG. 1e.) Nuclear OAADPr acetyltransferase activity is not inhibited by puromycin. HEK-293 nuclear extract was incubated with 200 μM O-[^3H]AADPr in the presence or absence of 100 μM puromycin for 60 min. The reactions were quenched and resolved by HPLC. The radioactivity in collected fractions was determined by liquid scintillation counting. FIGS. 1f-g.) In vivo detection of OAADPr. […]
Cytoplasmic and nuclear extracts were prepared from HEK-293 cells as previously described (22). […] Aliquots of the supernatant containing [^3H]acetate were removed and analyzed by liquid scintillation counting. […] Radioactivity in each elution fraction was measured by liquid scintillation counting.

[4] = tested on: cellular levels of OAADPr in HEK-293 cells; assay: Detection of cellular OAADPr by HPLC fractionation and MALDI mass spectrometry; format: cell-based; settings: puromycin-treated vs mock-treated HEK-293 cells
Method: as §1, with “OAADPr. Mass spectrum of HEK-293 generated OAADPr (peak m/z of 602.0894; the theoretical m/z for OAADPr is 602.0895) after puromycin treatment, with authentic [^13C]-OAADPr (peak m/z of 603.0851 and isotopic distribution of 604.0878 and 605.0928) as a standard. Peak 599.3691 is from the matrix.” for “OAADPr.”

For `COc1ccc(C[C@H](N)C(=O)N[C@H]2[C@@H](O)[C@H](n3cnc4c(N(C)C)ncnc43)O[C@@H]2CO)cc1` [puromycin], the “effect of puromycin treatment in whole rat” value [1] is given as “specific pancreatic cell death”, the “cell death of CRI-G1 cells” value [2] is given as “dose-dependent death” and the “effect on nuclear OAADPr-metabolizing activity” value [3] is given as “no effect”. The “cellular levels of OAADPr after treatment” value [4] was “significantly detectable levels”.
